pEC50: −log10 of the molar value. Where a name gives a salt, the structure may show the parent alone.
Assays:
STING in THP1-Dual Cells = assay: STING cellular assay in THP1-Dual cells (ISG54-Lucia luciferase reporter); details: Homo sapiens, 24 h, read-out: Cellular activity EC50 in THP1-Dual Cells
[1] = tested on: hSTING-R232 in THP1-Dual KI-hSTING-R232 Cells; assay: STING cellular assay in THP1-Dual KI-hSTING-R232 cells (Lucia luciferase reporter); details: Homo sapiens, THP1-Dual KI-hSTING-R232, 24 h, read-out: Cellular activity EC50 in THP1-Dual KI-hSTING-R232 Cells

Row | Compound | pEC50 (STING in THP1-Dual Cells) | pEC50 [1]
1 | Nc1nc2c(ncn2[C@@H]2O[C@@H]3COP(=O)(O)O[C@H]4[C@H](n5cnc6c(N)ncnc65)O[C@H](COP(=O)(O)O[C@H]3[C@H]2O)[C@]42CC2(F)F)c(=O)[nH]1 [Example 1, 2-amino-9-((1R,5′S,7′R,8′R,12a′R,14′R,15′R,15a′S)-7′-(6-amino-9H-purin-9-yl)-2,2-difluoro-2′,10′,15′-trihydroxy-2′,10′-dioxidooctahydro-12′H-spiro[cyclopropane-1,16′-[5,8]methanofuro[3,2-1][1,3,6,9,11]pentaoxa[2,10]diphosphacyclotetradecin]-14′-yl)-1,9-dihydro-6H-purin-6-one triethylamine salt] | 5.57 | 5.49
2 | Nc1nc2c(ncn2[C@@H]2O[C@@H]3CO[P@@](O)(=S)O[C@H]4[C@H](n5cnc6c(N)ncnc65)O[C@H](COP(O)(=S)O[C@H]3[C@H]2F)[C@]42CC2(F)F)c(=O)[nH]1 (stereo partly drawn) [Example 2, 2-amino-9-((1R,5′S,7′R,8′R,10′R,12a′R,14′R,15′R,15a′R)-7′-(6-amino-9H-purin-9-yl)-2,2,15′-trifluoro-2′,10′-dihydroxy-2′,10′-disulfidooctahydro-12′H-spiro[cyclopropane-1,16′-[5,8]methanofuro[3,2-1][1,3,6,9,11]pentaoxa[2,10]diphosphacyclotetradecin]-14′-yl)-1,9-dihydro-6H-purin-6-one] | 5.75 | 5.63

Reference: patent publication US12435104B2, “Cyclic dinucleotides as sting agonists” (BEIGENE, LTD., priority 2019, dated 2025)
